Reference: ChEMBL document CHEMBL1123161, “Synthesis and evaluation of 4-(substituted thio)-4-androstene-3,17-dione derivatives as potential aromatase inhibitors” (J Med Chem, 1986)

Legend:
Aromatase [1] = molecular target: T1, Aromatase (Homo sapiens, UniProt P11511); experiment: Evaluated for its competitive inhibitory activity against Cytochrome P450 19A1 with the use of human placental microsomal preparation; set-up: species or system Placenta; conditions: read-out: Ki app
T1 sequence (P11511 whole entry): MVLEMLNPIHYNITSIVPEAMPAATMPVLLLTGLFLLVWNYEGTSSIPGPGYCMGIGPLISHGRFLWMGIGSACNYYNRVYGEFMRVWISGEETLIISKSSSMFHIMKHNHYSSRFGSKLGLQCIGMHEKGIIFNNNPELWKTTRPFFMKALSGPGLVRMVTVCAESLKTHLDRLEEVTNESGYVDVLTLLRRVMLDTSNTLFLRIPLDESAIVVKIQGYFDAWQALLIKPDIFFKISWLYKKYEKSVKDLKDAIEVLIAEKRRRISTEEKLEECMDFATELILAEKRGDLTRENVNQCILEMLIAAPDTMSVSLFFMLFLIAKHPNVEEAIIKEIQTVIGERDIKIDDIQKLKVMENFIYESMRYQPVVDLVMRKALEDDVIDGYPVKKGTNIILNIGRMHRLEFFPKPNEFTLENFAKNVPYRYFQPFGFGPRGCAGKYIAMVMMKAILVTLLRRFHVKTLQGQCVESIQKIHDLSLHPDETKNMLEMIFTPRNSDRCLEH

Aromatase [2] = molecular target: T1, Aromatase
Description: (§1) Inhibition of Cytochrome P450 19A1 at the concentration of 0.25 uM

Aromatase [3] = molecular target: T1, Aromatase; remark: listed apart in the source
Description: (§2) Inhibition of Cytochrome P450 19A1 at the concentration of 1.5 uM

Aromatase [4] = molecular target: T1, Aromatase; remark: listed apart in the source
Description: (§3) Inhibition of Cytochrome P450 19A1 at the concentration of 0.75 uM

Aromatase [5] = molecular target: T1, Aromatase; conditions: 1.5 µM
Description: as §2

Aromatase [6] = molecular target: T1, Aromatase; conditions: 0.25 µM
Description: as §1

Aromatase [7] = molecular target: T1, Aromatase; conditions: 0.75 µM
Description: as §3

Row | SMILES | Ki (Aromatase [1]) [µM] | inhibition at 0.25 µM (Aromatase [2]) [%] | inhibition at 1.5 µM (Aromatase [3]) [%] | inhibition at 0.75 µM (Aromatase [4]) [%] | Inhibition (Aromatase [5]) [%] | Inhibition (Aromatase [6]) [%] | Inhibition (Aromatase [7]) [%]
1 | CC(=O)SC1=C2CCC3C4CCC(=O)C4(C)CCC3C2(C)CCC1=O (stereo not drawn) | 0.073 | 19 | 58 | 42 | – | – | –
2 | CCSC1=C2CCC3C4CCC(=O)C4(C)CCC3C2(C)CCC1=O (stereo not drawn) | 0.041 | 26 | 52 | 45 | – | – | –
3 | CCCSC1=C2CCC3C4CCC(=O)C4(C)CCC3C2(C)CCC1=O (stereo not drawn) | 0.065 | 25 | 49 | 42 | – | – | –
4 | CCCCCSC1=C2CCC3C4CCC(=O)C4(C)CCC3C2(C)CCC1=O (stereo not drawn) | – | 2 | 8 | 4 | – | – | –
5 | Cc1ccc(SC2=C3CCC4C5CCC(=O)C5(C)CCC4C3(C)CCC2=O)cc1 (stereo not drawn) | – | 14 | 31 | 27 | – | – | –
6 | CC12CCC3C(CCC4=C(SCc5ccccc5)C(=O)CCC43C)C1CCC2=O (stereo not drawn) | – | 2 | 8 | 5 | – | – | –
7 | CC(=O)OC1=C2CCC3C4CCC(=O)C4(C)CCC3C2(C)CCC1=O (stereo not drawn) | – | 38 | 78 | 70 | – | – | –
8 | CC12CCC3C(CCC4=C(Sc5ccccc5)C(=O)CCC43C)C1CCC2=O (stereo not drawn) | 0.036 | 36 | 68 | 55 | – | – | –
9 | CC12CCC3C(CCC4=C(Sc5ccc([N+](=O)[O-])cc5)C(=O)CCC43C)C1CCC2=O (stereo not drawn) | – | 0 | 0 | 0 | – | – | –
10 | CCCCSC1=C2CCC3C4CCC(=O)C4(C)CCC3C2(C)CCC1=O (stereo not drawn) | – | 8 | 18 | 12 | – | – | –
11 | CSC1=C2CCC3C4CCC(=O)C4(C)CCC3C2(C)CCC1=O (stereo not drawn) | 0.059 | 39 | 74 | 61 | – | – | –
12 | CC12CCC3C(CCC4=C(S)C(=O)CCC43C)C1CCC2=O (stereo not drawn) | – | 31 | 63 | 52 | – | – | –
13 | CC12CCC3C(CCC4=C(Sc5ccc(Br)cc5)C(=O)CCC43C)C1CCC2=O (stereo not drawn) | – | 0 | 6 | 4 | – | – | –
14 | COc1ccc(SC2=C3CCC4C5CCC(=O)C5(C)CCC4C3(C)CCC2=O)cc1 (stereo not drawn) | – | 0 | 2 | 0 | – | – | –
15 | CC12CCC3C(CCC4=C(Sc5ccc(N)cc5)C(=O)CCC43C)C1CCC2=O (stereo in doubt) | 0.018 | – | – | – | 82 | 46 | 70
16 | CC12CCC3C(CCC4=C(Sc5ccc(N)cc5)C(=O)CCC43C)C1CCC2=O (stereo in doubt; 14) | – | – | – | – | 0 | 0 | 0
17 | C[C@]12CCC(=O)C(O)=C1CC[C@@H]1[C@@H]2CC[C@]2(C)C(=O)CC[C@@H]12 [FORMESTANE] | 0.054 | 49 | 84 | 74 | – | – | –
